Test results published in patent publication US20170003292A1, “PAXIP1 AS A BIOMARKER FOR WEE1 INHIBITOR THERAPY” (H. LEE MOFFITT CANCER CENTER AND RESEARCH INSTITUT INC., priority 2014, published 2017).

Experiments:
Type in all cases: cell-based
lung cancer cell lines = assay: small-molecule inhibitor screen, apoptosis in lung cancer cell lines; details: AZD1775 in combination with cisplatin; multiple lung cancer cell lines
Text: Since posttranslational phosphorylations are used by the DDR to coordinate cellular response to damage, 18 kinases found in this tBRCT PPIN were examined using a small-molecule inhibitor screen.

[1] = tested on: WEE1 and PAXIP1 positive patient-derived xenografts (PDX); assay: 3-D clonogenic assay of patient-derived xenograft (PDX) lung tumors, Chou-Talalay combination index; details: combination with cisplatin
Text: Two tumors that were selected from a TMA of 68 lung tumors for 3-D clonogenic assays to test synergy of the combination of AZD1775 and cisplatin in these tumors. FIGS. 7A and 7C show percentage of tumor inhibition with different concentrations of AZD1775 and cisplatin. FIGS. 7B and 7D show combination index (CI) values obtained by applying the chou-[…] analysis to the percent inhibition values.

WEE1 = assay: p-CDC2 (p-CDK1) blots as marker for WEE1 inhibition in lung cancer cell lines; details: 15 lung cancer cell lines; AZD1775 as single agent or in combination with cisplatin; in lines with detectable (or elevated) PAXIP1 and WEE1
Text: FIG. 2 is a series of blots showing PAXIP1, WEE1, and p-CDC2 (a.k.a. p-CDK1) levels in lung cancer cell lines treated with AZD1775 and Cisplatin. D: DMSO; M: AZD1775 only; C: Cisplatin only; M+C: AZD1775 and Cisplatin combination. AZD1775 is an ATP mimetic that targets the kinase activity of WEE1 and is currently being evaluated in clinical trials for several tumor types. Phosphorylation of CDC2 (a.k.a. CDK1) by WEE1 can be used as a marker for WEE1 inhibition.

H322 cells [2] = assay: mitotic index at the G2/M checkpoint in H322 cells overexpressing full length PAXIP1; details: H322 cells with overexpression of full length PAXIP1, after AZD1775 treatment
H322 cells [3] = assay: caspase-3 mediated apoptosis in H322 cells overexpressing PAXIP1; details: PAXIP1 overexpression, treated over 72 hours, compared to cells with low levels of PAXIP1
[4] = tested on: lung cancer cell lines H322, H1648, H1395, H157; assay: cell viability by CellTiterGlo with synergy scores (Bliss model of independence); details: cells that express both PAXIP1 and WEE1; 72 h treatment; combination with cisplatin
Procedure: Lung adenocarcinoma cell lines 1-H322 (FIGS. 5A, 5B), H1648 (FIGS. 5E, 5F) and H1395 (FIGS. 5G, 5H) and a squamous lung cancer cell line H157 (FIG. 5C, 5D) were treated with AZD1775 and cisplatin either alone or in combination for 1 h and p-CDK1, PAXIP1 and WEE1 levels were measured (FIGS. 5A, 5C, 5E, […]). Cell lines were treated with AZD1775 and cisplatin for 72 h, cell viability was measured by CellTiterGlo and synergy scores were calculated (FIGS. 5B, 5D, 5F, 5H). Depicted in FIGS. 5B, 5D, 5F, and 5H are the three-dimensional dose-response surface curves with various combinations of drug concentrations (left) and the deviation from expected additive values determined by Bliss model of independence (right).

## C=CCn1c(=O)c2cnc(Nc3ccc(N4CCN(C)CC4)cc3)nc2n1-c1cccc(C(C)(C)O)n1 [AZD1775, 2-allyl-1-(6-(2-hydroxypropan-2-yl)pyridin-2-yl)-6-((4-(4-methylpiperazin-1-yl)phenyl)amino)-1H-pyrazolo[3,4-d]pyrimidin-3(2H)-one]
Lung cancer cell lines
  apoptosis: significant apoptosis
[1]
  synergy of AZD1775 and cisplatin (tumor inhibition, combination index): exhibit synergy
WEE1
  CDC2 phosphorylation: repression of CDC2 phosphorylation
H322 cells [2]
  mitotic index at the G2/M checkpoint: increased mitotic index
H322 cells [3]
  caspase-3 mediated apoptosis: sustained increase in apoptosis
H322 cells [3]; listed as AZD 1775
  caspase-3 mediated apoptosis: sustained increase in caspase-3 mediated apoptosis
[4]
  synergy of AZD1775 and cisplatin (cell viability): exhibit synergy
